# Residues, ends and D or L forms follow the SMILES beside them. *: point of attachment. Cbz = O=C(OCc1ccccc1)*
# What was measured:
# [1] = target: T1, CD44 (Homo sapiens, UniProt P16070); experiment: CD44 binding of sialidase-A / O-glycosidase digested rhPRG4, direct ELISA; conditions: coating 30 μg/mL; digestion 16 hours at 37° C.
# T1 construct: purchased R & D systems
# Method: rhPRG4 was digested using sialidase A (Prozyme, USA), O-glycosidase (New England Biolabs, USA) or a combination of sialidase A and O-glycosidase for 16 hours at 37° C. In the sialidase A digestion, 12 μL of the enzyme (1 U/200 μL) was added to rhPRG4 in a total reaction volume of 180 μL and a rhPRG4 final concentration of 300 μg/mL. In the O-glycosidase digestion, 4.8 μL of the enzyme (40 million units/mL) was added to rhPRG4 in a total reaction volume of 180 μL and a rhPRG4 final concentration of 300 μg/mL under non-denaturing conditions. In the sialidase-A and O-glycosidase digestion, the enzymes were used in volumes identical to the ones stated above and incubated with rhPRG4 in a total reaction volume and final rhPRG4 concentration as stated above. The effect of sialidase-A and O-glycosidase digestions on rhPRG4 apparent molecular weight was determined by SDS-PAGE using 4-12% Bis-Tris gel (NuPage, life technologies, USA). A total of 20 μL of rhPRG4 or enzyme-digested rhPRG4 was run under reducing conditions ([…] for 60 min) followed by staining using Gelcode Blue Stain (Thermo Scientific, USA). Binding of enzymatically digested rhPRG4 to CD44 was compared to undigested rhPRG4 using the direct ELISA approach described above and using an rhPRG4 coating concentration of 30 μg/mL. Data represents the average of 4 independent experiments, each with triplicate wells per group.
# [2] = tested on: NFκB nuclear translocation in RA-FLS; experiment: NFκB nuclear translocation after TNF-α stimulation of RA-FLS; type: cell-based; conditions: TNF-α 5 ng/mL; rhPRG4 200 μg/mL or MG 132 3 μM; 24 hours; p<0.001
# Method: RA-FLS (400,000 cells/well) were cultured and stimulated with TNF-α (5 ng/mL) and treated with rhPRG4 (200 μg/mL) or a commercially available NFκB translocation inhibitor MG 132 (3 μM; Tocris Bioscience) for 24 hours in serum free media. Cells were harvested and nuclear extraction was performed using a commercially available kit (Thermo scientific). Total protein was measured using a micro bicinchonic acid (BCA) kit (Thermo scientific) and 3 μg of nuclear extract of each experimental group were used. The p50 subunit of NFκB was detected in the nuclear extract using a commercially available NFκB DNA binding assay kit (Abcam). Data is presented as the number of fold change in NFκB nuclear levels compared to untreated control. To evaluate whether inhibition of NFκB translocation by rhPRG4 is CD44 dependent, the above experiment was repeated in the presence or absence of IM7 CD44 antibody (1:1,000 dilution). Data represents the average of 3 independent experiments with at least triplicate wells per treatment.
# [3] = tested on: citrated whole human blood; experiment: LPS challenge, inflammatory cytokines in whole blood (Biochip Array); type: cell-based; conditions: LPS 10 μg/mL, versus saline
# Description: Lipopolysaccharides (LPS) are found in the outer membrane of Gram-negative bacteria and elicit strong immune inflammatory responses in animals. The effect of LPS challenge on the production of inflammatory cytokines was studied in citrated whole human blood using Biochip Array technology to profile the generation of various cytokines and the modulation of their production. The generation of IL2, IL4, IL6, IL8, IL10, VEGF, IFNg, TNFa, IL1a, IL1b, MCP1 and EGF was studied in citrated whole blood samples supplemented with saline (1-10 ratio) and LPS at 10 μg/mL in samples incubated for 60 minutes at 37° C. These mixtures were centrifuged and the supernatant plasma was analyzed for the […] inflammatory biomarkers using a high sensitivity cytokine array on a Randox Invesitigator Biochip reader. These studies were run in duplicate and tabulated in the form of a table and a figure. As shown in FIGS. 8A-B, supplementation of lipopolysaccharide in a 1:10 dilution in whole blood results in an increase in production of the inflammatory cytokines IL-4, IL-6, IL-8, IL-10, VEGF, TNF-α, IL1-β, and MCP-1 under the specified conditions. No changes in IL2, IFNg, and IL1b were noted.
# [4] = target: T2, CD44 IgG1Fc (Homo sapiens, UniProt P16070); experiment: Direct ELISA: binding of coated macromolecules to CD44-IgG1Fc versus IgG1Fc; conditions: wells coated at 400 μg/mL; CD44-IgG1Fc or IgG1Fc 1 μg/mL; p<0.001 where significant
# T2 construct: purchased R & D systems
# Method: High-binding microtiter plates (Corning, Sigma Aldrich, USA) were coated with rhPRG4 (Mr≅240 KDa), high molecular weight HA (HMW HA; Mr≈1,500 KDa) (R & D System, USA), medium molecular weight HA (MMW HA; Mr≈300 KDa) (R & D System) and vitronectin (Mr≅75 KDa) (Sigma Aldrich) at 400 μg/mL in PBS buffer (100 μL per well) overnight at 4° C. rhPRG4 is a full-length product produced by CHO-M cells (Lubris, Framingham, Mass., USA). Following washing with PBS+0.1% Tween 20, wells were blocked with 2% bovine serum albumin (BSA; 300 μL per well) for at least 2 hours at room temperature. CD44-IgG1Fc (R & D systems) or IgG1Fc (R & D systems), each at 1 μg/mL (100 μl per well), were added to the plate and incubated for 60 min at room temperature. Following washing with PBS+0.1% tween 20, anti-IgG1Fc-HRP (Sigma Aldrich) was added at 1:10,000 dilution (100 μL per well) and incubated for 60 min at room temp. Following washing with PBS+0.1% tween 20, the assay was developed using 1-step Turbo TMB ELISA reagent (ThermoScientific, USA) and absorbance was measured at 450 nm. The data represents an average of 4 independent assays, each with triplicate wells per group.
# [5] = target: T2, CD44 IgG1Fc; experiment: Competition between rhPRG4 and HA on binding to CD44, ELISA; conditions: rhPRG4 5 μg/mL
# Method: To evaluate the competition between rhPRG4 and either HMW HA or MMW HA on binding to CD44, microtiter plates were coated with either CD44 IgG1Fc or IgG1Fc at 1 μg/mL (100 μL per well) overnight at 4° C. Subsequently, wells were washed with PBS+0.1% tween 20 and wells were blocked using 2% BSA (300 μL per well) for at least 2 hours at room temperature. […] Following washing with PBS+0.1% tween 20, lubricin-specific monoclonal antibody (Mab 9G3) was added at 1:1,000 (100 μL per well) and incubated for 60 min at room temp. Following washing with PBS+0.1% tween 20, goat anti-mouse IgG-HRP (Thermo Scientific) at 1:1,000 dilution was added (100 μL per well) and incubated for 60 min at room temp. The assay was developed as described above. The absorbance values in the IgG1Fc wells were subtracted from the absorbance values in the CD44-IgG1Fc wells and the corrected absorbance values in the rhPRG4+HA groups were normalized to the absorbance values of the rhPRG4 group and data was expressed as percentage binding to CD44. The data represents an average of 4 independent assays, each with triplicate wells per group.
# [6] = tested on: Rheumatoid arthritis fibroblast-like synoviocytes (RA-FLS); experiment: Cytokine-induced RA-FLS proliferation (MTS); type: cell-based; conditions: 48 hours, p<0.05
# Method: Rheumatoid arthritis fibroblast-like synoviocytes (RA-FLS; Cell Applications, USA) between 3rd and 6th passages were used to conduct these experiments. In sterile 96 well plates, RA-FLS (5,000 cells per well in 80 μL) were cultured in DMEM supplemented with 1% FBS and 1 mM pyruvate and stimulated with recombinant human interleukin-1 beta (IL-1β; R & D systems) at 20 ng/mL or tumor necrosis factor alpha (TNF-α; R & D systems) at 5 ng/mL for 48 hours at 37° C. in the absence or presence of rhPRG4 or HMW HA at a final concentration of 20, 40 or 80 μg/mL. The total volume in each well was 200 μL. Cell proliferation, an indication of inflammation, was determined using the CellTiter 96 AQueous one solution cell proliferation assay (MTS; Promega, USA) and the 490 nm absorbance was determined. Data is presented as the number of fold change in 490 nm absorbance compared to untreated control RA-FLS. The data represents the average of 3 independent experiments with at least triplicate wells per treatment. To evaluate the contribution of CD44 to the effect of rhPRG4 or HMW HA, RA-FLS were stimulated with IL-1β or TNF-α as described above. Treatment with rhPRG4 or HMW HA was conducted to a final concentration of 80 μg/mL in the absence or presence of IM7 (Abcam, USA), a CD44 neutralizing antibody that recognizes a conserved epitope across all CD44 isoforms (Samson et al., Exp Eye Res, 2014; 127C:14-19), at a final dilution of 1:200. The total volume in each well was 200 μl. Cell proliferation across the experimental groups was determined as described above and data is presented as the number of fold change in 490 nm absorbance compared to untreated control RA-FLS. The data represents the average of 3 independent experiments with at least triplicate wells per treatment.
compound,measurement,setting,value
sialidase-A digested rhPRG4: rhPRG4 digested using sialidase A for 16 hours at 37° C.,percentage binding to CD44 compared to untreated control (undigested rhPRG4),[1],significant increase
"CC(C)C[C@@H](C=O)NC(=O)[C@H](CC(C)C)NC(=O)[C@H](CC(C)C)NC(=O)OCc1ccccc1 [MG132, reference compound] (Cbz-Leu-Leu-Leu-aldehyde)",NFκB nuclear translocation compared to TNF-α-treated RA-FLS,[2],significantly reduced
sialidase-A and O-glycosidase-digested rhPRG4: rhPRG4 digested using a combination of sialidase A and O-glycosidase,percentage binding to CD44 compared to untreated control (undigested rhPRG4),[1],significantly higher
lipopolysaccharide,"production of IL-4, IL-6, IL-8, IL-10, VEGF, TNF-α, IL1-β and MCP-1","[3]; 1:10 dilution in whole blood, 60 minutes at 37° C.",increase
same,"IL2, IFNg and IL1b",[3]; 60 minutes at 37° C.,No changes
same,"percent changes in IL6, IL8, VEGF and TNFa",[3]; 60 minutes,pronounced increase
O-glycosidase digested rhPRG4: rhPRG4 digested using O-glycosidase for 16 hours at 37° C.,percentage binding to CD44 compared to untreated control (undigested rhPRG4),[1],significant increase
"vitronectin: vitronectin, Mr≅75 KDa (Sigma Aldrich), shares sequence homology with lubricin",450 nm absorbance in the CD44-IgG1Fc group versus the IgG1Fc group,[4],no significant difference
hyaluronic acid [HMW HA],450 nm absorbance in the CD44-IgG1Fc group versus the IgG1Fc group,[4],significantly higher
same,reduction of rhPRG4 binding to CD44 by an excess of HA,[5],approximately 50%
same,effect of HA on rhPRG4's binding to CD44,"[5]; HA at 0.05, 0.25, 1, p<0.05",significantly reduced
same,RA-FLS proliferation with IL-1β stimulation,"[6]; IL-1β 20 ng/mL, treatment 40 and 80 μg/mL",significantly suppressed
same,RA-FLS proliferation with TNF-α stimulation,"[6]; TNF-α 5 ng/mL, treatment 20, 40 and 80 μg/mL",did not result in suppressing

# Source: US11717557B2, “Use of PRG4 as an anti-inflammatory agent” (Lubris LLC, priority 2015, dated 2023)
